# Data reported in paper PMC6418270, “The pharmacological and functional characterization of the serotonergic system in Anopheles gambiae and Aedes aegypti: influences on flight and blood-feeding behavior” (Scientific Reports, 2019).
# Where a name gives a salt, the structure may show the parent alone.
# Tests used:
# Ae. aegypti [1] = experiment: Blood-feeding assay after ingestion of compound in 10% sucrose; format: in vivo, Aedes aegypti
# Description: Sucrose solution was withheld from newly-emerged mosquitoes for two days. On the third day, the mosquitoes were presented with a cotton ball saturated with 400 μL of a 10% sucrose solution laced with compound or the respective control for five days. The cotton ball was exchanged every other day with a fresh one. Seven to ten-day old female mosquitoes were treated with compound or appropriate control through microinjection post cold-anesthetization or ingestion. Two mL of human O^+ blood (BioChemed Services, Winchester, VA) was utilized to cover the concave surface of an inverted baby food jar. Hog intestine sealed the opening to simulate the puncturing of a host’s skin. The feeding membrane was placed on the top of a mosquito cage, and hot water was poured into the jar to warm the blood. After a 45-minute feed, the mosquitoes were immediately preserved at −20 °C. The blood meal size was determined for each mosquito via hemoglobinometry as previously described. Luminescence and calcium assay data were normalized and fitted with a non-linear least squares regression to generate dose-response curves, EC50 and IC50 values. Unpaired t-tests or Dunnett’s multiple comparisons test were performed accordingly to compare EC50 or IC50 values. Locomotion was measured based on the distance required for flight recovery. Data were compared with the Kruskal-Wallis and Dunnett’s multiple comparison tests after the Kolmogorov-Smirnov normality test was conducted. In the blood-feeding experiments, the percentage of blood-fed mosquitoes was calculated for each treatment group. For each biological replicate, the treatment groups were normalized with respect to the untreated group. Dunnett’s multiple comparison tests were utilized to determine statistical difference between normalized data. Size of bloodmeals were compared with an unpaired t-test or Mann-Whitney test after normality was evaluated with the Kolmogorov-Smirnov test. All analyses were performed utilizing GraphPad Prism version 7.00 for Mac OS X, GraphPad Software, La Jolla California USA, www.graphpad.com.
# Ae. aegypti [2] = experiment: Mortality on 10% sucrose solution containing compound; format: in vivo; settings: after a three-day period
# Description: The serotonergic system was manipulated to identify its role in blood-feeding behavior. To allow for the depletion of 5-HT, mosquitoes were fed a 10% sucrose solution containing varying concentrations (1, 5, 10, 25, and 60 mg/mL) of PCPA ethyl ester, a compound that […] tryptophan hydroxylase, a crucial enzyme in 5-HT synthesis. At the two highest concentrations (25 and 60 mg/mL), there was a 100% mortality rate after a three-day period. […] In comparison to the control group, which ingested an average volume of 1.87μL of blood, the average blood meal size for 1 and 5 mg/mL PCPA-treated groups was 1.84 ± 0.16 μL (p = 0.89) and 2.33 ± 0.25 μL (p = 0.12), respectively.
# Sucrose solution was withheld from newly-emerged mosquitoes for two days. On the third day, the mosquitoes were presented with a cotton ball saturated with 400 μL of a 10% sucrose solution laced with compound or the respective control for five days. The cotton ball was exchanged every other day with a fresh one.
# AGAP002232 [3] = molecular target: T1, AGAP002232 (Anopheles gambiae, UniProt A0A1S4GEY1); experiment: Fluo-4 calcium assay in CRE-luc2P HEK-293 cells expressing AGAP002232; format: cell-based; settings: for Response to biogenic amines: 10^−4 M, AGAP002232; for Ability to inhibit activity in a dose-response manner: antagonist test, receptor not given, taken as both 5-HT2 cell lines
# T1 sequence (A0A1S4GEY1 entry or part of it): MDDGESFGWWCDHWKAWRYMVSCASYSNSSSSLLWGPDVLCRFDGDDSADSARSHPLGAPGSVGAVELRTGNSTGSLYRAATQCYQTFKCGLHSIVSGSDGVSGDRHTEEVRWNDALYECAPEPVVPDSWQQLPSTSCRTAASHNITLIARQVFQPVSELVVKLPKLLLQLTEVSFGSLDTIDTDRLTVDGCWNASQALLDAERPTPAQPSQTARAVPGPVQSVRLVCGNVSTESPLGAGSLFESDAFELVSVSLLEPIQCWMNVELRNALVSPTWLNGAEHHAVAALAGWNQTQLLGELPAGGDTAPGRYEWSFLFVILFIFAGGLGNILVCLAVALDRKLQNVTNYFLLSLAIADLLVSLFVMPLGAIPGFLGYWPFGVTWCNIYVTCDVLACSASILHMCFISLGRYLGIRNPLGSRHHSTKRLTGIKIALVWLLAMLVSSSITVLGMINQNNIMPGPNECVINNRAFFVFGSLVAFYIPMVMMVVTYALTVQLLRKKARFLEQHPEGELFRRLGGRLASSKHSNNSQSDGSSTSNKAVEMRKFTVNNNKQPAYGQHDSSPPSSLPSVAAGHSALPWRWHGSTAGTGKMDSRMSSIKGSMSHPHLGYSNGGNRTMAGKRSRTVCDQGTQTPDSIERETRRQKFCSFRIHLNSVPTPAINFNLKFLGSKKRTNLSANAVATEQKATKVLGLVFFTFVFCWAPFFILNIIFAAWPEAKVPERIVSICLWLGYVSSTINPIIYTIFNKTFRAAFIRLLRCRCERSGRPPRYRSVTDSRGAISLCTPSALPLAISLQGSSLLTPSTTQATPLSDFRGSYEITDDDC
# Description: The GloResponse™ CRE-luc2P human embryonic kidney (HEK-293) reporter cells were incubated at 37 °C with an atmosphere of 5% CO2, and maintained in Dulbecco’s Modified Eagle Medium (DMEM) supplemented with 10% fetal bovine serum (FBS) and […] hygromycin B. Transfection of the HEK-293 cells with 1 μg of plasmid DNA was performed with Amaxa Nucleofector™ technology (Lonza, Basel, Switzerland) as per manufacturer’s instructions. A week post-transfection, selective pressure was applied with […] of G418 antibiotic to generate stable lines.
# (§1) 1 × 10^6 cells per well were seeded into a 96-well black all-clear bottom plate and incubated overnight in 10% FBS/90% DMEM at 37 °C with an atmosphere of 5% CO2. The following day, 2X Fluo-4 Direct calcium dye (Molecular Devices LLC, San Jose, CA) was added to each well and incubated in the same conditions for 45 minutes before the assay was completed. At this time, serial dilutions of the test compounds were prepared in a 96-well clear flat bottom plate. Fluorescence levels were determined with a FlexStation3 microplate reader, with excitation and emission wavelengths set to 485 and 525 nm, respectively (Molecular Devices LLC). Basal fluorescence levels were measured for 17 seconds, at which time, 25 μl of the agonist compound was added. Fluorescence measurements continued to be recorded for a total of 120 seconds at 2-second intervals. When testing antagonists, cells were treated with the compound prior to determination of fluorescence levels.
# (§2) Luminescence and calcium assay data were normalized and fitted with a non-linear least squares regression to generate dose-response curves, EC50 and IC50 values. Unpaired t-tests or Dunnett’s multiple comparisons test were performed accordingly to compare EC50 or IC50 values. Locomotion was measured based on the distance required for flight recovery. Data were compared with the Kruskal-Wallis and Dunnett’s multiple comparison tests after the Kolmogorov-Smirnov normality test was conducted. In the blood-feeding experiments, the percentage of blood-fed mosquitoes was calculated for each treatment group. For each biological replicate, the treatment groups were normalized with respect to the untreated group. Dunnett’s multiple comparison tests were utilized to determine statistical difference between normalized data. Size of bloodmeals were compared with an unpaired t-test or Mann-Whitney test after normality was evaluated with the Kolmogorov-Smirnov test. All analyses were performed utilizing GraphPad Prism version 7.00 for Mac OS X, GraphPad Software, La Jolla California USA, www.graphpad.com.
# AGAP002229 [4] = molecular target: T2, AGAP002229 (Anopheles gambiae, UniProt A7UR33); experiment: Fluo-4 calcium assay in CRE-luc2P HEK-293 cells expressing AGAP002229; format: cell-based; settings: for Response to biogenic amines: 10^−4 M; for Response to biogenic amines / Receptor activation by agonist: AGAP002229; for Ability to inhibit activity in a dose-response manner: antagonist test, receptor not given, taken as both 5-HT2 cell lines
# T2 sequence (A7UR33 entry or part of it): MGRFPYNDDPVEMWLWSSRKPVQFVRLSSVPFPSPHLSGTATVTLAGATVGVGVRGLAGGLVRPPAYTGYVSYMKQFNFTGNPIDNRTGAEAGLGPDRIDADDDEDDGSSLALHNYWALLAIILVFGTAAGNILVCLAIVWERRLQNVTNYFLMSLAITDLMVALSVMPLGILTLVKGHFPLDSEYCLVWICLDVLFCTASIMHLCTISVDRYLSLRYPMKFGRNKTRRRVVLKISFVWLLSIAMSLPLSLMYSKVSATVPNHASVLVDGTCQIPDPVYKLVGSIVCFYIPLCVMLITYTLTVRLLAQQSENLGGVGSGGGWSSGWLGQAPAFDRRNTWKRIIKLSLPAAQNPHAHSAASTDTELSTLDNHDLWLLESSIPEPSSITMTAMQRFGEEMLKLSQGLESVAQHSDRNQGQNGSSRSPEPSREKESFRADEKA
# Description: A week post-transfection, selective pressure was applied with […] of G418 antibiotic to generate stable lines.
# as §1, with “Fluorescence levels were determined with a FlexStation3 microplate reader, with excitation and emission wavelengths set to 485 and 525 nm, respectively (Molecular Devices LLC). Basal fluorescence levels were measured for 17 seconds, at which time, 25 μl of the agonist compound was added.” left out
# as §2
# AGAP002232 [5] = molecular target: T1, AGAP002232; experiment: GloResponse CRE-luc2P cyclic AMP reporter (luminescence) assay, AGAP002232; format: cell-based; settings: 10^−4 M
# Description: (§3) The reporter construct in the HEK-293 cells regulated the transcription of the luciferase gene in response to cAMP levels, while the Rluc-Neo^r construct in the pF9a expression plasmid served as a normalizing agent. Cells suspended in 1% FBS/99% DMEM without phenol red were seeded in white 96-well plates at a density of 6.6 × 10^5 per well, and immediately treated with varying concentrations of compounds. Following a 4-hour incubation at 37 °C with an atmosphere of 5% CO2, the cells were prepared for a Dual-Glo luciferase assay according to the manufacturer’s instructions (Promega Corporation, Madison, WI). The luminescence units were measured on the SpectraMax L 96 microplate luminometer (Molecular Devices, Sunnyvale, CA) and normalized to the cell number.
# AGAP002229 [6] = molecular target: T2, AGAP002229; experiment: GloResponse CRE-luc2P cyclic AMP reporter (luminescence) assay, AGAP002229; format: cell-based; settings: 10^−4 M
# Description: as §3
# Ae. aegypti [7] = experiment: Blood-feeding assay (artificial membrane feeder) after microinjection; format: in vivo, Aedes aegypti; settings: 10 mM microinjected
# Description: (§4) Stock solutions of the compounds were diluted to the appropriate concentrations in 1X phosphate buffer solution (PBS). To account for potential solvent effects, an ultrapure H2O control group was included in every independent experiment. Female mosquitoes were either cold- or CO2-anesthetized. A Nanoject II Auto-Nanoliter Injector (Drummond Scientific Company, Broomall, PA) was then utilized to microinject 69 nL of compound into the spiracle.
# Seven to ten-day old female mosquitoes were treated with compound or appropriate control through microinjection post cold-anesthetization or ingestion. Two mL of human O^+ blood (BioChemed Services, Winchester, VA) was utilized to cover the concave surface of an inverted baby food jar. Hog intestine sealed the opening to simulate the puncturing of a host’s skin. The feeding membrane was placed on the top of a mosquito cage, and hot water was poured into the jar to warm the blood. After a 45-minute feed, the mosquitoes were immediately preserved at −20 °C. The blood meal size was determined for each mosquito via hemoglobinometry as previously described.
# as §2
# Ae. aegypti [8] = experiment: Flight performance in flight cylinder after microinjection; format: in vivo, Aedes aegypti
# Description: as §4
# A flight cylinder was assembled as described previously. The polyacrylamide sheet was coated with Tangle-Trap Sticky Coating (The Scotts Company LLC, Marysville, OH) and allowed to sit overnight before insertion into the flight cylinder. Adult mosquitoes were anesthetized on a CO2 pad and microinjected with the compound or ultrapure H2O control. Post-injection, they were permitted to recover in a fly vial for 30 minutes before being ejected into the flight cylinder. After each trial, the distance between the top of the cylinder and the trapped mosquito was recorded. Mosquitoes captured in the fly vial at the bottom of the cylinder were considered to be incapable of flying and a distance of 91.5 cm was recorded.
# as §2
# 5-HT7 receptors = tested on: 5-HT7 receptors; parameters: method as in PMID 11282322; settings: in humans; cited from earlier work
# An. gambiae = settings: cited from earlier work
smiles,measurement,setting,value
"CCOC(=O)C(N)Cc1ccc(Cl)cc1.Cl (racemic) [PCPA ethyl ester, 4-chloro-DL-chlorophenylalanine ethyl ester hydrochloride]",Average blood meal size,Ae. aegypti [1]; 1 mg/mL in 10% sucrose,1.84 ± 0.16 µL
same,Feeding success or blood meal volume versus control,Ae. aegypti [1]; 1 mg/mL in 10% sucrose,did not demonstrate any significant difference
same,Average blood meal size,Ae. aegypti [1]; 5 mg/mL in 10% sucrose,2.33 ± 0.25 µL
same,Feeding success or blood meal volume versus control,Ae. aegypti [1]; 5 mg/mL in 10% sucrose,did not demonstrate any significant difference
same,Average blood meal size,Ae. aegypti [1]; 10 mg/mL in 10% sucrose,3.53 ± 0.16 µL
same,Blood feeding success rate,Ae. aegypti [1]; 10 mg/mL in 10% sucrose,73.2%
same,Mortality rate,Ae. aegypti [2]; 25 mg/mL in 10% sucrose,100%
same,Mortality rate,Ae. aegypti [2]; 60 mg/mL in 10% sucrose,100%
"NCC(O)c1ccc(O)cc1 (racemic) [octopamine, (±)-octopamine hydrochloride]",Response to biogenic amines,AGAP002232 [3],indiscernible from background levels
same,Response to biogenic amines,AGAP002229 [4],indiscernible from background levels
"NCCc1c[nH]c2ccc(O)cc12 [5-HT, serotonin hydrochloride]",EC50,AGAP002232 [3],1900 nM
same,EC50,AGAP002229 [4],87.4 nM
same,Receptor response (cyclic AMP) under Gαs and Gαi/o conditions,AGAP002232 [5],no measurable responses
same,Receptor response (cyclic AMP) under Gαs and Gαi/o conditions,AGAP002229 [6],no measurable responses
same,"Successfully blood-fed, normalized to the untreated group",Ae. aegypti [7],approximately 80%
same,Effect on flight compared to H2O alone,Ae. aegypti [8]; 10 mM,did not affect flight
same,Average distance in flight cylinder,"Ae. aegypti [8]; 10 mM, Fig. 5c",25.1 cm
same,Ability to fly,Ae. aegypti [8]; concentrations greater than 10 mM,completely inhibited the mosquitoes’ ability to fly
"COc1ccc2[nH]cc(CCN)c2c1 [5-MT, 5-methoxytryptamine]",EC50,AGAP002229 [4],1080 nM
same,Receptor activation by agonist,AGAP002229 [4],able to activate
NCCc1c[nH]c2ccc(C(N)=O)cc12 [5-carboxamidotryptamine],Affinity for 5-HT7 receptors,5-HT7 receptors,strong affinity
CCCN(CCC)C1CCc2cccc(O)c2C1 (stereo not shown) [8-OH-DPAT],Affinity for 5-HT7 receptors,5-HT7 receptors,strong affinity
CN(C)CCCC1(c2ccc(F)cc2)OCc2cc(C#N)ccc21 (stereo not shown) [citalopram],Flight after microinjection into the thorax,An. gambiae,severe flight defects and a prolonged time for flight recovery
"NCCc1ccc(O)c(O)c1 [dopamine, dopamine hydrochloride]",Response to biogenic amines,AGAP002232 [3],indiscernible from background levels
same,Response to biogenic amines,AGAP002229 [4],indiscernible from background levels
NCCc1c[nH]cn1 [histamine],Response to biogenic amines,AGAP002232 [3],indiscernible from background levels
same,Response to biogenic amines,AGAP002229 [4],indiscernible from background levels
"CN1CCN2c3ccccc3Cc3ccccc3C2C1 (stereo not shown) [mianserin, mianserin hydrochloride]",Ability to inhibit activity in a dose-response manner,AGAP002232 [3],only the former two exhibited the ability to inhibit activity
same,Ability to inhibit activity in a dose-response manner,AGAP002229 [4],only the former two exhibited the ability to inhibit activity
O=C(CCCN1CCC2(CC1)C(=O)NCN2c1ccccc1)c1ccc(F)cc1 [spiperone],Ability to inhibit activity in a dose-response manner,AGAP002232 [3],only the former two exhibited the ability to inhibit activity
same,Ability to inhibit activity in a dose-response manner,AGAP002229 [4],only the former two exhibited the ability to inhibit activity
"NCCc1c[nH]c2ccccc12 [tryptamine, tryptamine hydrochloride]",EC50,AGAP002229 [4],2760 nM
same,Receptor activation by agonist,AGAP002229 [4],able to activate
"NCCc1ccc(O)cc1 [tyramine, tyramine hydrochloride]",Response to biogenic amines,AGAP002232 [3],indiscernible from background levels
same,Response to biogenic amines,AGAP002229 [4],indiscernible from background levels
"COC(=O)[C@@H]1[C@H]2C[C@H]3c4[nH]c5ccccc5c4CCN3C[C@@H]2CC[C@@H]1O [yohimbine, yohimbine hydrochloride]",Ability to inhibit activity in a dose-response manner,AGAP002232 [3],only the former two exhibited the ability to inhibit activity
same,Ability to inhibit activity in a dose-response manner,AGAP002229 [4],only the former two exhibited the ability to inhibit activity
